Patent US20260232767A1, “INTERLEUKIN-23 RECEPTOR ANTAGONIST PEPTIDES FOR USE IN THE TREATMENT OF PSORIASIS” (Janssen Pharmaceutica NV, priority 2023, published 2026)
Read-outs that look alike come from different tables or passages of the source.

Tested on: anti-drug antibodies to the IL-23 receptor antagonist peptide
Settings: for Subjects negative for treatment-emergent anti-peptide antibodies, % / Subjects positive for treatment-emergent anti-peptide antibodies, %: through Week 16 or Follow-up Week 20; for Subjects positive for treatment-emergent anti-peptide antibodies at any time, %: through Week 16

CC(=O)NCCCC[C@@H]1NC(=O)[C@H](Cc2c[nH]c3c(C)cccc23)NC(=O)[C@H]([C@@H](C)O)NC(=O)[C@H](CC(N)=O)NC(=O)[C@@H](NC(C)=O)C(C)(C)SSC(C)(C)[C@@H](C(=O)N[C@@H](Cc2ccc(OCCN)cc2)C(=O)N[C@@H](Cc2ccc3ccccc3c2)C(=O)NC2(C(=O)N[C@@H](CCC(=O)O)C(=O)N[C@@H](CC(N)=O)C(=O)N[C@@H](Cc3cccnc3)C(=O)N(C)CC(N)=O)CCOCC2)NC1=O [IL-23 receptor antagonist peptide, Ac-[Pen]*-N-T-[W(7-Me)]-[Lys(Ac)]-[Pen]*-Phe[4-(2-aminoethoxy)]-[2-Nal]-[THP]-E-N-[3-Pal]-Sarc-NH2 (*[Pen]-[Pen]* formdisulfidebond)]
0: Footnote d group: Baseline titers 1:50, n subjects (25 mg BID, N=41) | Peak titer group <50, n subjects (25 mg BID, N=41) | Peak titer group >50-<100, n subjects (25 mg BID, N=41) | Peak titer group ≥100-<1000, n subjects (25 mg BID, N=41) | Peak titer group ≥1000, n subjects (25 mg BID, N=41) | Positive at baseline: Baseline titers 1:50, n subjects (25 mg BID, N=41) | Treatment-boosted (footnote c): Baseline titers 1:50, n subjects (25 mg BID, N=41) | Treatment-emergent: Peak titers 1:50, n subjects (25 mg BID, N=41) | Footnote d group: Baseline titers 1:50, n subjects (25 mg QD, N=42) | Peak titer group >50-<100, n subjects (25 mg QD, N=42) | Peak titer group ≥100-<1000, n subjects (25 mg QD, N=42) | Peak titer group ≥1000, n subjects (25 mg QD, N=42) | Positive at baseline: Baseline titers 1:50, n subjects (25 mg QD, N=42) | Treatment-boosted (footnote c): Baseline titers 1:50, n subjects (25 mg QD, N=42) | Peak titer group >50-<100, n subjects (50 mg QD, N=43) | Peak titer group ≥100-<1000, n subjects (50 mg QD, N=43) | Peak titer group ≥1000, n subjects (50 mg QD, N=43) | Treatment-boosted (footnote c): Baseline titers 1:50, n subjects (50 mg QD, N=43) | Footnote d group: Baseline titers 1:50, n subjects (100 mg BID, N=41) | Peak titer group >50-<100, n subjects (100 mg BID, N=41) | Peak titer group ≥100-<1000, n subjects (100 mg BID, N=41) | Peak titer group ≥1000, n subjects (100 mg BID, N=41) | Positive at baseline: Baseline titers 1:50, n subjects (100 mg BID, N=41) | Treatment-boosted (footnote c): Baseline titers 1:50, n subjects (100 mg BID, N=41) | Footnote d group: Baseline titers 1:50, n subjects (100 mg QD, N=42) | Peak titer group >50-<100, n subjects (100 mg QD, N=42) | Peak titer group ≥100-<1000, n subjects (100 mg QD, N=42) | Peak titer group ≥1000, n subjects (100 mg QD, N=42) | Positive at baseline: Baseline titers 1:50, n subjects (100 mg QD, N=42) | Treatment-boosted (footnote c): Baseline titers 1:50, n subjects (100 mg QD, N=42) | Peak titer group >50-<100, n subjects (Combined doses, N=209) | Peak titer group ≥100-<1000, n subjects (Combined doses, N=209) | Peak titer group ≥1000, n subjects (Combined doses, N=209) | Treatment-boosted (footnote c): Baseline titers 1:50, n subjects (Combined doses, N=209)
7.0%: Subjects positive at baseline who were treatment-boosted for antibodies (footnote d: titers did not increase 2-fold), % (50 mg QD, N=43) | Subjects positive for anti-peptide antibodies at baseline, % (50 mg QD, N=43)
(7.3%): Subjects positive for treatment-emergent anti-peptide antibodies at any time, % (100 mg BID, N=41)
(2.4%): Subjects positive for treatment-emergent anti-peptide antibodies at any time, % (25 mg QD, N=42)
3: Footnote d group: Baseline titers 1:50, n subjects (50 mg QD, N=43) | Positive at baseline: Baseline titers 1:50, n subjects (50 mg QD, N=43) | Peak titer group <50, n subjects (100 mg BID, N=41) | Treatment-emergent: Peak titers 1:50, n subjects (100 mg BID, N=41) | Peak titer group <50, n subjects (100 mg QD, N=42) | Treatment-emergent: Peak titers 1:50, n subjects (100 mg QD, N=42) | Footnote d group: Baseline titers 1:50, n subjects (Combined doses, N=209) | Positive at baseline: Baseline titers 1:50, n subjects (Combined doses, N=209)
8: Peak titer group <50, n subjects (Combined doses, N=209) | Treatment-emergent: Peak titers 1:50, n subjects (Combined doses, N=209)
2.3%: Subjects positive for treatment-emergent anti-peptide antibodies, % (50 mg QD, N=43)
7.3%: Subjects positive for treatment-emergent anti-peptide antibodies, % (100 mg BID, N=41)
(1.4%): Subjects positive at baseline who were treatment-boosted for antibodies (footnote d: titers did not increase 2-fold), % (Combined doses, N=209) | Subjects positive for anti-peptide antibodies at baseline, % (Combined doses, N=209)
(7.1%): Subjects positive for treatment-emergent anti-peptide antibodies at any time, % (100 mg QD, N=42)
2.4%: Subjects positive for treatment-emergent anti-peptide antibodies, % (25 mg QD, N=42)
1: Peak titer group <50, n subjects (25 mg QD, N=42) | Treatment-emergent: Peak titers 1:50, n subjects (25 mg QD, N=42) | Peak titer group <50, n subjects (50 mg QD, N=43) | Treatment-emergent: Peak titers 1:50, n subjects (50 mg QD, N=43)
92.9%: Subjects negative for treatment-emergent anti-peptide antibodies, % (100 mg QD, N=42)
1.4%: Participants positive for ADA prior to the first dose (baseline) (3 of 209, all 50 mg QD group)
97.7%: Subjects negative for treatment-emergent anti-peptide antibodies, % (50 mg QD, N=43)
(2.3%): Subjects positive for treatment-emergent anti-peptide antibodies at any time, % (50 mg QD, N=43)
100%: Subjects negative for treatment-emergent anti-peptide antibodies, % (25 mg BID, N=41)
7.1%: Subjects positive for treatment-emergent anti-peptide antibodies, % (100 mg QD, N=42)
(96.2%): Subjects negative for treatment-emergent anti-peptide antibodies, % (Combined doses, N=209)
92.7%: Subjects negative for treatment-emergent anti-peptide antibodies, % (100 mg BID, N=41)
97.6%: Subjects negative for treatment-emergent anti-peptide antibodies, % (25 mg QD, N=42)
(3.8%): Subjects positive for treatment-emergent anti-peptide antibodies at any time, % (Combined doses, N=209) | Subjects positive for treatment-emergent anti-peptide antibodies, % (Combined doses, N=209)
